{
  "source": "patent US20110165279A1",
  "about": "“SWEET POTATO TRYPSIN INHIBITOR AND METHODS FOR TREATING INFLAMMATION AND HYPERALGESIA” (Academia Sinica Office of Public Affairs (Technology …, priority 2010, published 2011)",
  "key": {"mouse hind footpad": {"test_system": "mouse hind footpad", "test": "Histological examination of mouse hind footpad after carrageenan (H&E, neutrophil counts)", "assay_type": "in vivo", "details": "biopsies 5 hours after Carr, IbTI 40 mg/kg, indomethacin 10 mg/kg", "procedure": "For histological examination, biopsies of paws were taken 5 hours after Carr injection into the plantar side of right hind paws. The tissue slices were fixed in solution with 1.85% formaldehyde and 1% acetic acid for 1 week at room temperature, then dehydrated by graded ethanol and embedded in Paraffin (Sherwood Medical, St. Louis, Mo., USA). Sections (thickness 5 μm) were deparaffinized with xylene and stained with hematoxylin and eosin. All samples were observed and photographed with BH2 Olympus microscopy (Japan). Every 3-5 tissue slices were randomly chosen from control, Carr, Indo and IbTI-treated (40 mg/kg) groups. The numbers of neutrophils were counted in each scope (400×) and average counts from 5 scopes of each tissue slice were calculated."}, "[1]": {"test_system": "hind paw edema induced by λ-carrageenan in mice", "test": "λ-carrageenan-induced hind paw edema test in mice", "assay_type": "in vivo, mouse", "details": "10 mg/kg i.p., 3, 4 and 5 hours after Carr injection; p<0.01 or p<0.001", "procedure": "Male ICR mice (18-25 g) were obtained from the BioLASCO Taiwan Co., Ltd. The animals were kept in plexiglass cages under a constant temperature of 22±1° C., relative humidity 55±5%, and a light regime of 12 hours dark/12 hour light for at least 2 weeks before the experiment. They were given food and water ad libitum. All experimental procedures were performed according to the NIH Guide for the Care and Use of Laboratory Animals. The placebo groups were given subcutaneous 0.1 ml/10 g saline using a bent blunted 27-gauge needle connected to a 1 ml syringe. All tests were conducted under the guidelines of the International Association for the Study of Pain [Zimmermann, M., Ethical guidelines for investigations of experimental pain in conscious animals. Pain. 1983, 16, 109-110].\nMale ICR mice (eight per group), 18 g to 25 g, were fasted for 24 hours before the experiment with free access to water. […] Paw volume was measured immediately after Carr injection and at 1, 2, 3, 4 and 5 hours intervals after the administration of the edematogenic agent using a plethysmometer (model 7159, Ugo Basile, Varese, Italy). The degree of swelling induced was evaluated by the ratio a/b, where a is the volume of the right hind paw after Carr treatment, and b is the volume of the right hind paw before Carr treatment."}},
  "data": [
    {"smiles": "COc1ccc2c(c1)c(CC(=O)O)c(C)n2C(=O)c1ccc(Cl)cc1", "note": "[Indomethacin, indomethacin]", "values": [
      {"measurement": "histological appearance of hind footpad vs Carr only", "setting": "mouse hind footpad", "result": "significantly reduced the level of hemorrhage, edema and inflammatory cell infiltration"},
      {"measurement": "neutrophil numbers in paw tissue vs Carr-treated group", "setting": "mouse hind footpad; p<0.01", "result": "significantly decreased the number of inflammatory neutrophil infiltration"},
      {"measurement": "paw edema", "setting": "[1]", "result": "significantly decreased paw edema"}
    ]}
  ]
}
